According to patent US8569336B2, “Compounds for the treatment of inflammatory disorders” (priority 2008, dated 2013):
Like-named read-outs stand apart in the source and are kept apart here.

Legend:
[1] = biological target: T1, purified catalytic domain of recombinant human TACE (rhTACEc) (Homo sapiens, UniProt P78536, N452Q/S266A); experiment: TACE kinetic assay: cleavage of internally quenched peptide substrate TNF-FRET 2 (Ki); assay type: biochemical; settings: TNF-FRET 2 substrate
T1 construct: 6xHis (C); made in house; host or cells: baculovirus/Hi5 insect cells
T1 sequence (P78536 215-477 S266A/N452Q): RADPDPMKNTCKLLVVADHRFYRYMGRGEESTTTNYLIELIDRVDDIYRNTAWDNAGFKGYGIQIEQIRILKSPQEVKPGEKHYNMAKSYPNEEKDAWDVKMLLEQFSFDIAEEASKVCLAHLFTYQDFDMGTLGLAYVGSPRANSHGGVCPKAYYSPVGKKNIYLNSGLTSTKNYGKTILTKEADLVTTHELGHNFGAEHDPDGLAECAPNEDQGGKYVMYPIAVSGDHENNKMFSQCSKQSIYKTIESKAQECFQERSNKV

[2] = system: TNF-α production from human whole blood; experiment: Inhibition of TNF-α production from human whole blood (hWBA), LPS stimulated, ELISA; assay type: cell-based; settings: Homo sapiens, human whole blood diluted 1:1, LPS stimulated, TNF-α by ELISA, read-out: hWBA (IC50)

Row | Compound | Ki ([1]; read-out: Ki) | IC50 ([2]; 3.5 h, 3.5 h) | Ki ([1]; Ki) | IC50 [2]
1 | COc1ccc2c(c1)C(=O)N(C[C@@]1(c3cc4cnc(N5CCCC5=O)cc4o3)NC(=O)NC1=O)C2 [Compound 2253] | 0.972 nM | 2670 nM | – | –
2 | COc1ccc2c(c1)C(=O)N(C[C@@]1(c3cc4c(O)nccc4o3)NC(=O)NC1=O)C2 [Compound 2256] | 0.231 nM | 252 nM | – | –
3 | COc1ccc2c(c1)C(=O)N(C[C@@]1(c3cc4c[n+]([O-])ccc4o3)NC(=O)NC1=O)C2 [Compound 2259] | 1.08 nM | 509 nM | – | –
4 | COc1ccc2c(c1)C(=O)N(C[C@@]1(c3cc4cc(-c5c(N)noc5C)ccc4o3)NC(=O)NC1=O)C2 [Compound 2261] | 0.347 nM | 515 nM | – | –
5 | COc1ccc2c(c1)C(=O)N(C[C@@]1(c3cc4c(o3)CCNC4)NC(=O)NC1=O)C2 [Compound 2262] | 6.54 nM | ≥ 1000 nM | – | –
6 | COc1ccc2c(c1)C(=O)N(C[C@@]1(c3cc4c(s3)CCN(C)C4)NC(=O)NC1=O)C2 [Compound 2265] | 8.77 nM | 1440 nM | – | –
7 | COc1ccc2c(c1)C(=O)N(C[C@@]1(c3cc4c(o3)CNCC4)NC(=O)NC1=O)C2 [Compound 2266] | 7.83 nM | 860 nM | – | –
8 | COc1ccc2c(c1)C(=O)N(C[C@@]1(c3cc4c(o3)CCN(CC(N)=O)C4)NC(=O)NC1=O)C2 [Compound 2268] | – | 252 nM | 0.702 nM | –
9 | COc1ccc2c(c1)C(=O)N(C[C@@]1(c3cc4c(C(F)(F)F)nccc4o3)NC(=O)NC1=O)C2 [Compound 2270] | 0.441 nM | 1070 nM | – | –
10 | COc1ccc2c(c1)C(=O)N(C[C@@]1(c3cc4cnc(C5=NCCN5)cc4o3)NC(=O)NC1=O)C2 [Compound 2273] | 0.124 nM | 747 nM | – | –
11 | COc1ccc2c(c1)C(=O)N(C[C@@]1(c3cc4cc(-c5cc(O)n[nH]5)cnc4o3)NC(=O)NC1=O)C2 [Compound 2275] | 1.08 nM | 491 nM | – | –
12 | COc1ccc2c(c1)C(=O)N(C[C@@]1(c3cc4cc(-c5cc(O)nn5C)cnc4o3)NC(=O)NC1=O)C2 [Compound 2276] | 0.562 nM | 222 nM | – | –
13 | COc1ccc2c(c1)C(=O)N(C[C@@]1(c3cc4c(N5CCNCC5)nccc4o3)NC(=O)NC1=O)C2 [Compound 2279] | – | 234 nM | 2.55 nM | –
14 | COc1ccc2c(c1)C(=O)N(C[C@@]1(c3cc4c(N5CCNC(=O)C5)nccc4o3)NC(=O)NC1=O)C2 [Compound 2280] | 1.1 nM | – | – | 340 nM
15 | COc1ccc2c(c1)C(=O)N(C[C@@]1(c3cc4cnc(N)cc4o3)NC(=O)NC1=O)C2 [Compound 2282] | 0.422 nM | – | – | 268 nM
16 | COc1ccc2c(c1)C(=O)N(C[C@@]1(c3cc4c(-c5cn[nH]c5)nccc4o3)NC(=O)NC1=O)C2 [Compound 2283] | 0.185 nM | – | – | 154 nM
17 | COc1ccc2c(c1)C(=O)N(C[C@@]1(c3cc4cnc(C5CC5)cc4o3)NC(=O)NC1=O)C2 [Compound 2287] | 0.429 nM | – | – | 575 nM
18 | COc1ccc2c(c1)C(=O)N(C[C@@]1(c3cc4cnc(-c5c(C)noc5C)cc4o3)NC(=O)NC1=O)C2 [Compound 2288] | 0.721 nM | – | – | 696 nM
19 | CNc1cc2oc([C@]3(CN4Cc5ccc(OC)cc5C4=O)NC(=O)NC3=O)cc2cn1 [Compound 2291] | 0.578 nM | – | – | 3420 nM
20 | COc1ccc2c(c1)C(=O)N(C[C@@]1(c3cc4c(N5CCNC5=O)nccc4o3)NC(=O)NC1=O)C2 [Compound 2292] | 1.32 nM | – | – | 485 nM
21 | COc1ccc2c(c1)C(=O)N(C[C@@]1(c3cc4c(Cl)nc(N)nc4o3)NC(=O)NC1=O)C2 [Compound 2296] | – | – | 4.59 nM | ≥ 10000 nM
22 | COc1ccc2c(c1)C(=O)N(C[C@@]1(c3cc4cnc(NC5CC5)nc4o3)NC(=O)NC1=O)C2 [Compound 2297] | 0.822 nM | – | – | ≥ 1000 nM
23 | COc1ccc2c(c1)C(=O)N(C[C@@]1(c3cc4cnc(NC(C)C)nc4o3)NC(=O)NC1=O)C2 [Compound 2298] | 1.69 nM | – | – | ≥ 1000 nM
24 | COc1ccc2c(c1)C(=O)N(C[C@@]1(c3cc4c(C)nc(N)nc4o3)NC(=O)NC1=O)C2 [Compound 2299] | – | – | 0.762 nM | 284 nM
25 | COc1ccc2c(c1)C(=O)N(C[C@@]1(c3cc4cnc(Cl)nc4o3)NC(=O)NC1=O)C2 [Compound 2301] | 0.36 nM | – | – | 532 nM

Row | Compound | Ki ([1]; read-out: Ki) | IC50 ([2]; 3.5 h, 3.5 h) | Ki ([1]; Ki) | IC50 [2]
26 | COc1ccc2c(c1)C(=O)N(C[C@@]1(c3cc4cc(C)ncc4o3)NC(=O)NC1=O)C2 [Compound 2302] | 0.437 nM | – | – | 470 nM
27 | COc1ccc2c(c1)C(=O)N(C[C@@]1(c3cc4cncc(Br)c4o3)NC(=O)NC1=O)C2 [Compound 2303] | 0.312 nM | – | – | 630 nM
28 | COc1ccc2c(c1)C(=O)N(C[C@@]1(c3cc4c(C(F)(F)F)nc(N)nc4o3)NC(=O)NC1=O)C2 [Compound 2305] | 0.568 nM | – | – | 1420 nM
29 | COc1ccc2c(c1Cl)C(=O)N(C[C@@]1(c3cc4cnccc4o3)NC(=O)NC1=O)C2 [Compound 2306] | 0.57 nM | – | – | 834 nM
30 | COc1ccc2c(c1)C(=O)N(C[C@@]1(c3cc4cnc(OC)cc4o3)NC(=O)NC1=O)C2 [Compound 2308] | 0.328 nM | – | – | 2110 nM
31 | COc1cc2c(cc1F)CN(C[C@@]1(c3cc4cnccc4o3)NC(=O)NC1=O)C2=O [Compound 2311] | 1.72 nM | – | – | 942 nM
32 | COc1ccc2c(c1)C(=O)N(C[C@@]1(c3cc4cnc(O)cc4o3)NC(=O)NC1=O)C2 [Compound 2312] | 1.06 nM | – | – | 218 nM
33 | COc1ccc2c(c1)C(=O)N(C[C@@]1(c3cc4[nH]c(=O)ccc4o3)NC(=O)NC1=O)C2 [Compound 2317] | 0.375 nM | – | – | 542 nM
34 | COc1ccc2c(c1)C(=O)N(C[C@@]1(c3cc4ncc(CO)cc4o3)NC(=O)NC1=O)C2 [Compound 2320] | 0.586 nM | – | – | 609 nM
35 | COc1ccc2c(c1)C(=O)N(C[C@@]1(c3cc4cc(C(=O)NO)ccc4o3)NC(=O)NC1=O)C2 [Compound 2402] | 0.5 nM | – | – | 256 nM
36 | COc1ccc2c(c1)C(=O)N(C[C@@]1(c3ccc(C(N)=O)cc3)NC(=O)NC1=O)C2 [Compound 2403] | 1.3 nM | – | – | 1970 nM
37 | COc1ccc2c(c1)C(=O)N(C[C@@]1(c3ccc(C(=O)O)cc3)NC(=O)NC1=O)C2 [Compound 2404] | 3.15 nM | – | – | 1710 nM
38 | COc1ccc2c(c1)C(=O)N(C[C@@]1(c3ccc(C(=O)N4CCOCC4)cc3)NC(=O)NC1=O)C2 [Compound 2405] | 2.91 nM | – | – | 2710 nM
39 | COc1ccc2c(c1)C(=O)N(C[C@@]1(c3ccc(C(=O)NS(C)(=O)=O)cc3)NC(=O)NC1=O)C2 [Compound 2406] | 5.38 nM | – | – | 7110 nM
40 | COc1ccc2c(c1)C(=O)N(C[C@@]1(c3cc4cc(C(N)=O)ccc4o3)NC(=O)NC1=O)C2 [Compound 2407] | – | – | 0.12 nM | 162 nM
41 | COc1ccc2c(c1)C(=O)N(C[C@@]1(c3cc4ccc(C(N)=O)cc4o3)NC(=O)NC1=O)C2 [Compound 2408] | 0.49 nM | – | – | 132 nM
42 | CCOC(=O)c1ccc2cc([C@]3(CN4Cc5ccc(OC)cc5C4=O)NC(=O)NC3=O)oc2c1 [Compound 2409] | 0.33 nM | – | – | 1870 nM
43 | COc1ccc2c(c1)C(=O)N(C[C@@]1(c3cc4ccc(C(=O)O)cc4o3)NC(=O)NC1=O)C2 [Compound 2410] | 0.3 nM | – | – | 591 nM
44 | COc1ccc2c(c1)C(=O)N(C[C@@]1(c3cc4ccc(C(=O)NCC5CCN(C)CC5)cc4o3)NC(=O)NC1=O)C2 [Compound 2411] | 1.14 nM | – | – | 348 nM
45 | COCCNC(=O)c1ccc2cc([C@]3(CN4Cc5ccc(OC)cc5C4=O)NC(=O)NC3=O)oc2c1 [Compound 2413] | 0.6 nM | – | – | 300 nM
46 | COc1ccc2c(c1)C(=O)N(C[C@@]1(c3cc4ccc(C(=O)N(C)C)cc4o3)NC(=O)NC1=O)C2 [Compound 2414] | 0.41 nM | – | – | 990 nM
47 | COc1ccc2c(c1)C(=O)N(C[C@@]1(c3cc4ccc(C(=O)NC[C@H](C)O)cc4o3)NC(=O)NC1=O)C2 [Compound 2415] | 0.51 nM | – | – | 452 nM
48 | COc1ccc2c(c1)C(=O)N(C[C@@]1(c3cc4ccc(C(=O)NC[C@@H](C)O)cc4o3)NC(=O)NC1=O)C2 [Compound 2416] | 0.56 nM | – | – | 891 nM
49 | COc1ccc2c(c1)C(=O)N(C[C@@]1(c3cc4ccc(C(=O)N[C@@H](C)CO)cc4o3)NC(=O)NC1=O)C2 [Compound 2417] | 0.64 nM | – | – | 508 nM
50 | COc1ccc2c(c1)C(=O)N(C[C@@]1(c3cc4ccc(C(=O)NCCN5CCCC5)cc4o3)NC(=O)NC1=O)C2 [Compound 2418] | 0.76 nM | – | – | 265 nM
